Source: ChEMBL document CHEMBL3860069, “A new Suzuki synthesis of triphenylethylenes that inhibit aromatase and bind to estrogen receptors α and β” (Bioorg Med Chem, 2016)

Assays:
CYP19 (aromatase) = molecular target: T1, CYP19 (aromatase) (Homo sapiens, UniProt P11511); experiment: in vitro; settings: recombinant human microsomal CYP19, probe MFC
T1 sequence (P11511 whole entry): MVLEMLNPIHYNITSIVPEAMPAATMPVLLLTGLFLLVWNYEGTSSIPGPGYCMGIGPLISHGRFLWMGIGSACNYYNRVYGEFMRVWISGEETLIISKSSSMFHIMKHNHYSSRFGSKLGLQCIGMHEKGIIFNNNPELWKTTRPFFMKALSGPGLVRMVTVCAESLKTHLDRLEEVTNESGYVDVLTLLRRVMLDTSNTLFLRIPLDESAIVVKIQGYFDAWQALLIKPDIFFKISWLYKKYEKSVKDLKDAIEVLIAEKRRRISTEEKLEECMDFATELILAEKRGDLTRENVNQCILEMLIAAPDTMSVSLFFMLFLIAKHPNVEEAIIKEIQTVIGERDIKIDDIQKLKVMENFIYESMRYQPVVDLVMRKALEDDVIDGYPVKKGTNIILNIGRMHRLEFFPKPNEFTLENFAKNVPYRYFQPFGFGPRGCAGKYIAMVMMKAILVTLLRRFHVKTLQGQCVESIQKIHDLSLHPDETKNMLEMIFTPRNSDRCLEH
Description: Inhibition of recombinant human microsomal CYP19 at 50 uM using MFC as substrate measured after 30 mins by fluorometric analysis relative to control

Estrogen receptor beta [1] = molecular target: T2, Estrogen receptor beta (Homo sapiens, UniProt Q92731); experiment: Displacement of fluorescent ES2 from recombinant human ERbeta at 100 uM after 2 hrs in absence of light by fluorometric analysis relative to control
[2] = molecular target: T3, Estrogen receptor (Homo sapiens) (UniProt P03372); experiment: Displacement of fluorescent ES2 from recombinant human ERalpha at 100 uM after 2 hrs in absence of light by fluorometric analysis relative to control
T3 sequence (whole entry): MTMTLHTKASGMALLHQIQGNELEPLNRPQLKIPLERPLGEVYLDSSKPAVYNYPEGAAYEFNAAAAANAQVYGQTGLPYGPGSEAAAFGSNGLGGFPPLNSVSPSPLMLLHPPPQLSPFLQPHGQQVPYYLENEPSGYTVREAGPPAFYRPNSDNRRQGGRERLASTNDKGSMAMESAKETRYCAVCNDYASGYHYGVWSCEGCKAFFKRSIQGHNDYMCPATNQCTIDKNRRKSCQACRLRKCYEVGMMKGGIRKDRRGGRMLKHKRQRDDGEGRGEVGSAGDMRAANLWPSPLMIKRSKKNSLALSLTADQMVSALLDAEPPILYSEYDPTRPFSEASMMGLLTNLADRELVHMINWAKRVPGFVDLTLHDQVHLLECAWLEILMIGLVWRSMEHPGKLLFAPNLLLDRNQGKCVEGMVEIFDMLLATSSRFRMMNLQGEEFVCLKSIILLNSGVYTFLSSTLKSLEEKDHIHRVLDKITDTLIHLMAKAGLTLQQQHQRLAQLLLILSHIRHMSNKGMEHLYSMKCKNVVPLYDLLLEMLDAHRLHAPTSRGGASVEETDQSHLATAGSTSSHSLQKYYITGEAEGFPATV

Aromatase = molecular target: T4, Aromatase (Homo sapiens, UniProt P11511)
T4 sequence (P11511 whole entry): T1 sequence (P11511 whole entry)
Description: Inhibition of recombinant human microsomal CYP19 using MFC as substrate measured after 30 mins by fluorometric analysis

Estrogen receptor = molecular target: T5, Estrogen receptor (Homo sapiens, UniProt P03372)
T5 sequence (P03372 whole entry): T3 sequence (whole entry)
Description: Displacement of fluorescent ES2 from recombinant human ERalpha after 2 hrs in absence of light by fluorometric analysis

Estrogen receptor beta [3] = molecular target: T2, Estrogen receptor beta
Description: Displacement of fluorescent ES2 from recombinant human ERbeta after 2 hrs in absence of light by fluorometric analysis

T2 sequence (Q92731 whole entry): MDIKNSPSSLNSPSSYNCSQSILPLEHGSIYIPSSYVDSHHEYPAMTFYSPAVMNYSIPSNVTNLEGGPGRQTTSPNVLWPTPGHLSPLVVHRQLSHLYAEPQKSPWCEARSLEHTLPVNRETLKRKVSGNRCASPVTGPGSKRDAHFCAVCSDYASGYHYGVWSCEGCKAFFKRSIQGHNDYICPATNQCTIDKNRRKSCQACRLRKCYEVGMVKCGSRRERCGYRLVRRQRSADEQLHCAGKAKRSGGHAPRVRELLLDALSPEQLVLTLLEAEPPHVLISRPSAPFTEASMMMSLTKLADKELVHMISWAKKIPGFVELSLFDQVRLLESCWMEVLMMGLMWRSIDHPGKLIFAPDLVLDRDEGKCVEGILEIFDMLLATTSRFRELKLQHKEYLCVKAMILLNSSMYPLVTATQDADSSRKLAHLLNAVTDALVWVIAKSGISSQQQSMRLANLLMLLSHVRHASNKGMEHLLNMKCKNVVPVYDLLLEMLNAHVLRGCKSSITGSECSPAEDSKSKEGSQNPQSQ

| inhibition at 0.5 h, 50 µM (CYP19 (aromatase)) [%] | inhibition (Estrogen receptor beta [1]) [%] | inhibition [2] [%] | IC50 (Aromatase) [nM] | EC50 (Estrogen receptor) [nM] | EC50 (Estrogen receptor beta [3]) [nM] | SMILES |
| --- | --- | --- | --- | --- | --- | --- |
| > 90 | – | – | – | – | – | CCC(=C(c1ccc(O)cc1)c1ccc(O)cc1)c1ccccc1 |
| > 90 | – | – | – | – | – | CC(=C(c1ccc(N)cc1)c1ccc(N)cc1)c1ccc([N+](=O)[O-])cc1 |
| > 90 | – | – | – | – | – | CC(=C(c1ccc(O)cc1)c1ccc(O)cc1)c1ccc(N)cc1 |
| > 90 | – | – | – | – | – | CCC(=C(c1ccc(N)cc1)c1ccc(N)cc1)c1ccc([N+](=O)[O-])cc1 |
| > 90 | 77 | 31 | – | – | – | CC(=C(c1ccc(N)cc1)c1ccc(N)cc1)c1ccc(N)cc1 |
| > 90 | 76 | 25 | – | – | – | CCC(=C(c1ccc(N)cc1)c1ccc(N)cc1)c1ccc(N)cc1 |
| 76 | 0 | 0 | – | – | – | CCC(=C(c1ccc(O)cc1)c1ccc(OCC(N)=O)cc1)c1ccc([N+](=O)[O-])cc1 |
| > 90 | – | – | – | – | – | CCC(=C(c1ccc(O)cc1)c1ccc(O)cc1)c1ccc(N)cc1 |
| 78 | 66 | 40 | – | – | – | CCC(=C(c1ccc(O)cc1)c1ccc(O)cc1)c1ccc([N+](=O)[O-])cc1 |
| 75 | 55 | 19 | – | – | – | CC(=C(c1ccc(O)cc1)c1ccc(O)cc1)c1ccc([N+](=O)[O-])cc1 |
| > 90 | – | – | – | – | – | CCC(=C(c1ccc(O)cc1)c1ccc(OCCN)cc1)c1ccccc1 |
| > 90 | – | – | – | – | – | CC/C(=C(\c1ccc(O)cc1)c1ccc(OCCN)cc1)c1ccccc1 |
| > 90 | 0 | 0 | 9720 | – | – | CC(=C(c1ccc(O)cc1)c1ccc(OCC(N)=O)cc1)c1ccc([N+](=O)[O-])cc1 |
| > 90 | 71 | 57 | 9260 | – | – | CC/C(=C(/c1ccc(O)cc1)c1ccc(OCC(N)=O)cc1)c1ccccc1 |
| > 90 | – | – | – | – | – | CC/C(=C(/c1ccc(O)cc1)c1ccc(OCCN)cc1)c1ccccc1 |
| > 90 | – | – | 645 | 164 | 218 | CC(=C(c1ccc(N)cc1)c1ccc(NCC(N)=O)cc1)c1ccc([N+](=O)[O-])cc1 |
| > 90 | – | – | 287 | 451 | 346 | CCC(=C(c1ccc(N)cc1)c1ccc(NCC(N)=O)cc1)c1ccc([N+](=O)[O-])cc1 |
